Values joined by “and” are separate entries in the source; they are usually repeats but may differ in a detail not shown here. Identical values can stand only once. “Also recorded” adds a separate entry of the source.
How the values were obtained:
E. coli DH5α = assay: Agar diffusion assay; format: cell-based; details: for neutralization of antibacterial activity by AlbAS: 40 µM compound pre-incubated with 40 µM AlbAS; for antibacterial activity in agar diffusion assay: 40 µM compound, E. coli DH5α, 18 h 37 °C
Description: To verify the neutralizing ability of AlbAS, AlbAL, AlbASM, AlbASCTD, or AlbASNTD against different compounds, agar diffusion assays with the respective compounds were performed. An overnight culture of E. coli DH5α was diluted to an OD600 of 0.05 with 0.75% LB-agar. The protein-albicidin reaction mixture consisted of a 1:1 mixture of 40 μM albicidin (or derivatives) with 40 μM protein (either AlbAS or its variants AlbAL, AlbASM, AlbASNTD, and AlbASCTD). The mixture was incubated for 20 min at room temperature in the dark. Reaction mixtures of 30 μL were transferred in triplicates of 2 mm holes on the inoculated agar plate. The plates were evaluated concerning growth-inhibition zone after incubation for 18 h at 37 °C.

AlbAS [1] = biological target: T1, AlbAS (Klebsiella oxytoca, UniProt Q8KRS7); assay: 1H-15N HSQC NMR binding assay; details: 15N-labeled AlbAS, 1.5-fold excess of ligand
T1 sequence (Q8KRS7 1-221): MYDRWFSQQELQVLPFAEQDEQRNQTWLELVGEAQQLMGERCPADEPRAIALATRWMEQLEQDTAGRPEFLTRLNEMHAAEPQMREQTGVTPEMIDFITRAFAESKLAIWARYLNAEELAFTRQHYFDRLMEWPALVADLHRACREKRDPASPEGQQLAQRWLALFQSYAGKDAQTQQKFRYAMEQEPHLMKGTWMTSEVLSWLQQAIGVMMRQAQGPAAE
Description: For binding studies with albicidin and its derivatives, each ligand was dissolved in 100% d6-DMSO and added to ^15N-labeled AlbAS or ^2H, ^15N-labeled AlbAL in 50 mM sodium hydrogen phosphate (pH 6.8), 150 mM NaCl buffer (usually 0.24 mM AlbAS or AlbAL in 85% buffer, 5% d6-DMSO, and 10% D2O) yielding a 1.5-fold excess of the ligand. After incubation for 20 min at room temperature in the dark, the sample was centrifuged at 20 000 × g for 3 min and the supernatant was transferred to a 5 mm NMR tube. The AlbAS blank sample (Supplementary Figure 14) was measured in 100% buffer without addition of ligands and DMSO. Spectra were recorded on a Bruker Avance III 700 MHz NMR spectrometer (Bruker BioSpin, Rheinstetten, Germany) with a TXI probe head. Standard Bruker pulse sequences were used. 2D ^1H-^15N HSQC spectra were recorded at 298 K with acquisition times of 90 and 22 ms for the ^1H and ^15N dimension, respectively. The experiments were accumulated with ≥16 scans depending on protein sample concentration. 2D ^1H-^15N TROSY spectra were accumulated with 256 scans and acquisition times of 90 and 22 ms for the ^1H and ^15N dimension, respectively. Several AlbAS–albicidin samples were measured with the same result and a representative spectrum is given for the figures in the main manuscript and the SI. NMR experiments with AlbAS and albicidin analogs were conducted once with accumulation of ≥16 scans depending on protein concentration. For alignment of HSQC and TROSY spectra, the TROSY spectrum was corrected by 1/2 ^1JNH in both dimensions. […]

AlbAS [2] = biological target: T1, AlbAS; assay: Fluorescence quenching binding assay (tryptophan fluorescence) with AlbAS; details: for Kd: AlbAS 20 nM, fluorescence quenching, pH 6.8
Description: Fluorescence quenching measurements were performed by monitoring tryptophan fluorescence of AlbAS (20 nM), AlbAL (20 nM), AlbASNTD, and AlbASCTD (100 nM) on a FluoroMax 2 spectrometer from Horiba (Potsdam, Germany). The excitation wavelength was set to λexc = 280 nm. Emission spectra were recorded from λem = 290–450 nm with a scanning speed of 1 nm s^−1 and an integration time of 1 s. The excitation and emission slit widths were set to 8 and 4 nm, respectively. Proteins were solved in 50 mM sodium phosphate buffer with 150 mM NaCl and 0.01% DMSO at pH 6.8. All measurements were performed twice and the standard deviation is given for the Kd and the Hill factor n. Data evaluation was performed by integration of the emission band (318–410 nm for AlbAS, 316–412 nm for AlbAL, and 319–390 nm for AlbASNTD and AlbASCTD) for every titration step. The area under the curve (AUC) of the buffer blank (buffer with 0.01% DMSO) was subtracted from the measured titration data. The quenching factor was determined by subtraction of AUCs for each titration step from the AUC of the protein in the absence of ligand. For determination of the AlbAS– and AlbAL–albicidin Kd values, the data were fitted to Eq. (2).2 Y=Bmax[L]^n/Kdn+[L]^n where [L], n, and Bmax denote the total ligand concentration, the Hill coefficient, and the maximum binding capacity of the protein, respectively.
For the determination of the Kd for AlbAS–compound 7 the data were fitted to Eq. (3).3 Y=Pt+L+Kd-Pt+L+Kd^2-4PtL/2 where Pt is the total protein concentration.

SMILES	neutralization of antibacterial activity by AlbAS (E. coli DH5α)	antibacterial activity in agar diffusion assay (E. coli DH5α)	binding to AlbAS by HSQC signal pattern (in words) (AlbAS [1])	effect on fluorescence emission of AlbAS (in words) (AlbAS [2]; AlbAS 20 nM titrated with compound)	Kd (AlbAS [2])
COc1c(NC(=O)c2ccc(NC(=O)c3ccc(NC(=O)[C@H](CC#N)NC(=O)c4ccc(NC(=O)/C(C)=C/c5ccc(F)cc5)cc4)cc3)c(OC)c2O)ccc(C(=O)O)c1O [compound 1]	abolished the antibacterial activity	–	–	–	–
COc1c(NC(=O)c2ccc(NC(=O)c3ccc(NC(=O)[C@@H](NC(=O)c4ccc(NC(=O)c5ccc(O)cc5)cc4)[C@@H](C)O)cc3)c(OC)c2O)ccc(C(=O)O)c1O [compound 2]	confirmed binding	strongly antibacterial	characteristic HSQC signal pattern as in the case of albicidin binding; also recorded: no significant effect on AlbAS binding	–	–
COc1c(NC(=O)c2ccc(NC(=O)c3ccc(NC(=O)[C@@H](CC#N)NC(=O)c4ccc(NC(=O)/C(C)=C/c5ccc(O)cc5)cc4)cc3)c(OC)c2O)ccc(C(=O)O)c1O [compound 3]	prohibit its antibacterial effects; also recorded: neutralizing effect	–	still able to bind; also recorded: binding mode equivalent to that of albicidin	–	–
C/C(=C\c1ccc(O)cc1)C(=O)Nc1ccc(C(=O)O)cc1 [compound 4]	–	did not display antibacterial activity	weak binding	did not lead to significant quenching; also recorded: no consistent effect on fluorescence emission spectra	–
COc1c(NC(=O)c2ccc(NC(=O)c3ccc(N)cc3)c(OC)c2O)ccc(C(=O)O)c1O [compound 5]	–	did not display antibacterial activity	slow-exchange regime (strong binding)	–	~0.0555 µM and 0.0555 µM
COc1c(NC(=O)c2ccc(NC(=O)[C@H](CC#N)NC(=O)c3ccc(N)cc3)cc2)ccc(C(=O)O)c1O [compound 6]	–	did not display antibacterial activity	slow-exchange regime (strong binding)	–	–
COC(C(N)=O)C(NC(=O)c1ccc(NC(=O)c2ccc([N+](=O)[O-])cc2)cc1)C(=O)Nc1ccc(C(=O)Nc2ccc(C(=O)Nc3ccc(C(=O)O)cc3OC(C)C)cc2OC(C)C)cc1 (centres unmarked) [compound 7]	able to neutralize the antibacterial effects of compound 7, albeit with decreased efficiency	–	strong binding of compound 7 in the nanomolar Kd range	–	0.014 ± 0.0029 µM

From PMC6078987, “Molecular insights into antibiotic resistance - how a binding protein traps albicidin” (Nature Communications, 2018)
